US5468756A, “Imidazonaphthyridine derivatives” (Kyowa Hakko Kogyo Co., Ltd., priority 1990, dated 1995)
Counter-ions that a name gives are not always drawn.

Columns and labels:
[1] = test system: passive Schultz-Dale reaction; test: Effect on passive Schultz-Dale reaction (broncho-dilative activity), sensitized tracheal strips contracted by antigen; design: species or system male Hartley guinea pigs; conditions: guinea pig tracheal zig-zag strips, 37° C., antigen egg white albumin 1 μg/ml; read-out: Passive Schultz-Dale reaction IC50 (concentration of 50% relaxation rate)
Method: d) Effect on passive Schultz-Dale reaction (broncho-dilative activity)
Male Hartley guinea pigs weighing 350 to 500 g were passively sensitized by intraperitoneal injection of rabbit anti-OA serum prepared in advance by the method of Koda et al. [Folia Pharmacol., Japon 66, 237, (1970)]. After 24 hours, the guinea pigs were stunned and exsanguinated, and then tracheae were removed. The zig-zag strips of the tracheae were prepared by the method of Emmerson and Mackay [J. Pharm. Pharmacol., 31, 798, (1979)]. The strips were suspended in Krebs-Henseleit solution at 37° C. under aeration of a mixed gas of 95% oxygen and 5% carbon dioxide, and equilibrated for one hour. Then, antigen (egg white albumin) was introduced in the solution (final concentration; 1 μg/ml), and the contraction was measured by isotonictransducer (TD-112s, made by Nihon Kohden K.K., Japan) and recorded on a recorder (Type 3066, made by Yokogawa-Hokushin Denki, K.K. Japan). After the contraction curves reached a plateau, the test compounds were successively added in order to get cumulative concentration-relaxation curves. The concentration of 50% relaxation rate (IC50) was calculated from the regression line, which was obtained from the cumulative concentration-relaxation curves.

[2] = test system: platelet activating factor (PAF)-induced mortality; test: Inhibition effect on platelet activating factor (PAF)-induced mortality; assay type: in vivo, male dd mice; conditions: Mus musculus, po, PAF 40 μg/kg i.v., 3 h, n = 10, control group survival 0-20%, read-out: Survival rate of test compound-administered group
Method: e) Inhibition effect on platelet activating factor (PAF)-induced mortality
The experiment was carried out by a minor modification of a known method [Br. J. Pharmacol., 79, 595 (1983)]. Groups each consisting of 10 male dd mice (weighing 28 to 32 g) were used, and 50 or 100 mg/kg of the test compound or a saline (control) was orally administered. One hour after the administration of test compound, 40 μg/kg of PAF (manufactured by Avanti Polar Lipids Co., Ltd.) was intravenously administered. Three hours after PAF injection, the mortality of the animals was observed.

[3] = test system: ddY strain male mice; test: Acute toxicity (Minimum Lethal Dose); assay type: in vivo
Method: The test compound was orally and intraperitoneally administered to ddY strain male mice weighing 20 to 25 g. MLD (Minimum Lethal Dose) was determined by observing the mortality for […] after the administration.

O=c1c2ncn(Cc3ccccc3)c2c2cccnc2n1-c1ccccc1 [Compound 7, 1-Benzyl-5-phenyl-1H-imidazo[4,5-c][1,8]naphthyridin-4(5H)-one]
IC50 [1]: > 10000 nM
responders at 100 mg/kg [2]: 90%

COC(=O)c1ccc(Cn2cnc3c4cccnc4n(-c4ccccc4)c(=O)c32)cc1 [Compound 50, 3-(4-Methoxycarbonylphenyl)methyl-5-phenyl-3H-imidazo[4,5-c][1,8]naphthyridin-4(5H)-one]
responders at 100 mg/kg [2]: 0%

Cc1ccc(-n2c(=O)c3c(ncn3Cc3ccccc3)c3cccnc32)cc1 [Compound 57, 5-(4-Methylphenyl)-3-benzyl-3H-imidazo[4,5-c][1,8]naphthyridin-4(5H)-one]
responders at 100 mg/kg [2]: 0%

Cn1cnc2c(=O)n(-c3ccccc3)c3ncccc3c21 [Compound 2, 1-Methyl-5-phenyl-1H-imidazo[4,5-c][1,8]naphthyridin-4(5H)-one]
MLD (Minimum Lethal Dose) i.p. [3]: > 100 mg/kg
MLD (Minimum Lethal Dose) p.o. [3]: > 300 mg/kg

O=c1c2c(ncn2C(c2ccccc2)c2ccccc2)c2cccnc2n1-c1ccccc1 [Compound 38, 3-(3-Diphenylmethyl)-5-phenyl-3H-imidazo-[4,5-c][1,8]naphthyridin-4(5H)-one]
responders at 100 mg/kg [2]: 30%

Cc1ccc(C)c(Cn2cnc3c4cccnc4n(-c4ccccc4)c(=O)c32)c1 [Compound 39, 3-(2,5-Dimethylphenyl)methyl-5-phenyl-3H-imidazo[4,5-c][1,8]naphthyridin-4(5H)-one]
responders at 100 mg/kg [2]: 0%

O=c1c2c(nc(-c3ccccc3)n2Cc2ccccc2)c2cccnc2n1-c1ccccc1 [Compound 61, 2,5-Diphenyl-3-benzyl-3H-imidazo[4,5-c][1,8]naphthyridin-4(5H)-one]
responders at 100 mg/kg [2]: 10%

O=c1c2c(ncn2CCCO)c2cccnc2n1-c1ccccc1 [Compound 51, 3-(3-Hydroxypropyl)-5-phenyl-3H-imidazo[4,5-c][1,8]naphthyridin-4(5H)-one]
responders at 100 mg/kg [2]: 80%

O=c1c2c(ncn2CCCN2CCOCC2)c2cccnc2n1-c1ccccc1 [Compound 66 Sa, 3-(3-Morpholino)propyl-5-phenyl-3H-imidazo[4,5-c][1,8]naphthyridin-4(5H)-one hydrochloride]
responders at 100 mg/kg [2]: 70%
MLD (Minimum Lethal Dose) i.p. [3]: > 100 mg/kg
MLD (Minimum Lethal Dose) p.o. [3]: > 300 mg/kg

COc1ccc(-n2c(=O)c3c(ncn3CC(C)C)c3cccnc32)cc1 [Compound 62, 3-Isobutyl-5-(4-methoxyphenyl)-3H-imidazo[4,5-c][1,8]naphthyridin-4(5H)-one]
responders at 100 mg/kg [2]: 90%

Cc1nc2c3cccnc3n(-c3ccccc3)c(=O)c2n1Cc1ccccc1 [Compound 60, 2-Methyl-5-phenyl-3-benzyl-3H-imidazo[4,5-c][1,8]-naphthyridin-4(5H)-one]
responders at 100 mg/kg [2]: 20%

O=c1c2c(ncn2Cc2cccnc2)c2cccnc2n1-c1ccccc1 [Compound 54, 5-Phenyl-3-(3-pyridyl)methyl-3H-imidazo[4,5-c][1,8]naphthyridin-4(5H)-one]
responders at 100 mg/kg [2]: 90%

CC(O)Cn1cnc2c3cccnc3n(-c3ccccc3)c(=O)c21 (centres unmarked) [Compound 52, 3-(2-Hydroxypropyl)-5-phenyl-3H-imidazo[4,5-c][1,8]naphthyridin-4(5H)-one]
responders at 100 mg/kg [2]: 100%

Cc1ccc(-n2c(=O)c3c(ncn3CC(C)C)c3cccnc32)cc1 [Compound 64, 3-Isobutyl-5-(4-methylphenyl)-3H-imidazo[4,5-c][1,8]naphthyridin-4(5H)-one]
responders at 100 mg/kg [2]: 60%

O=c1c2c(ncn2Cc2cccc(Br)c2)c2cccnc2n1-c1ccccc1 [Compound 49, 3-(3-Bromophenyl)methyl-5-phenyl-3H-imidazo[4,5-c][1,8]naphthyridin-4(5H)-one]
responders at 100 mg/kg [2]: 0%

COc1ccc(-n2c(=O)c3c(ncn3Cc3ccccc3)c3cccnc32)cc1 [Compound 55, 5-(4-Methoxyphenyl)-3-benzyl-3H-imidazo[4,5-c][1,8]naphthyridin-4(5H)-one]
responders at 100 mg/kg [2]: 0%

CCOC(=O)Cn1cnc2c3cccnc3n(-c3ccccc3)c(=O)c21 [Compound 32, 3-Ethoxycarbonylmethyl-5-phenyl-3H-imidazo[4,5-c][1,8]naphthyridin-4(5H)-one]
IC50 [1]: 680 nM
responders at 100 mg/kg [2]: 0%
MLD (Minimum Lethal Dose) i.p. [3]: > 100 mg/kg
MLD (Minimum Lethal Dose) p.o. [3]: > 300 mg/kg

O=c1c2c(ncn2CC=Cc2ccccc2)c2cccnc2n1-c1ccccc1 [Compound 36, 3-Cinnamyl-5-phenyl-3H-imidazo[4,5-c][1,8]naphthyridin-4(5H)-one]
responders at 100 mg/kg [2]: 20%
MLD (Minimum Lethal Dose) i.p. [3]: > 100 mg/kg
MLD (Minimum Lethal Dose) p.o. [3]: > 300 mg/kg

O=c1c2[nH]cnc2c2cccnc2n1-c1ccccc1 [Compound 3, 5-Phenyl-3H-imidazo[4,5-c][1,8]naphthyridin-4(5H)-one]
IC50 [1]: 770 nM
responders at 100 mg/kg [2]: 70%
MLD (Minimum Lethal Dose) i.p. [3]: > 100 mg/kg
MLD (Minimum Lethal Dose) p.o. [3]: > 300 mg/kg

COc1cccc(-n2c(=O)c3c(ncn3Cc3ccccc3)c3cccnc32)c1 [Compound 56, 5-(3-Methoxyphenyl)-3-benzyl-3H-imidazo[4,5-c][1,8]naphthyridin-4(5H)-one]
responders at 100 mg/kg [2]: 40%

O=c1c2c(ncn2Cc2ccco2)c2cccnc2n1-c1ccccc1 [Compound 53, 3-Furfuryl-5-phenyl-3H-imidazo[4,5-c][1,8]naphthyridin-4(5H)-one]
responders at 100 mg/kg [2]: 90%

CCN(CC)CCCn1cnc2c3cccnc3n(-c3ccccc3)c(=O)c21 [Compound 67 Sa, 3-(3-Diethylamino)propyl-5-phenyl-3H-imidazo[4,5-c][1,8]naphthyridin-4(5H)-one hydrochloride]
responders at 100 mg/kg [2]: 30%
MLD (Minimum Lethal Dose) i.p. [3]: > 100 mg/kg
MLD (Minimum Lethal Dose) p.o. [3]: > 300 mg/kg

CCCC(CCC)n1cnc2c3cccnc3n(-c3ccccc3)c(=O)c21 [Compound 35, 3-(1-Propylbutyl)-5-phenyl-3H-imidazo[4,5-c][1,8]naphthyridin-4(5H)-one]
responders at 100 mg/kg [2]: 70%
MLD (Minimum Lethal Dose) i.p. [3]: > 100 mg/kg
MLD (Minimum Lethal Dose) p.o. [3]: > 300 mg/kg

O=c1c2c(ncn2Cc2ccccc2Cl)c2cccnc2n1-c1ccccc1 [Compound 48, 3-(2-Chlorophenyl)methyl-5-phenyl-3H-imidazo[4,5-c][1,8]naphthyridin-4(5H)-one]
IC50 [1]: 4900 nM
responders at 100 mg/kg [2]: 10%

Cn1cnc2c3cccnc3n(-c3ccccc3)c(=O)c21 [Compound 4, 3-Methyl-5-phenyl-3H-imidazo[4,5-c][1,8]naphthyridin-4(5H)-one]
IC50 [1]: 240 nM
MLD (Minimum Lethal Dose) i.p. [3]: > 50 mg/kg
MLD (Minimum Lethal Dose) p.o. [3]: > 50 mg/kg
